Laboratory results reported in publication PMC4847013, “Pronounced peptide selectivity for melanoma through tryptophan end-tagging” (Scientific Reports, 2016).
Where a name gives a salt, the structure may show the parent alone. Ends that are not written are not given here.

Key:
erythrocytes = test: Hemolysis assay; type: cell-based; conditions: 5% erythrocytes in PBS pH 7.4, 1 h, 37 °C, peptides 60 or 120 μM, % of 2% Triton X-100, triplicate, Fig. 8b
Description: EDTA-blood was centrifuged at 800 g for 10 min, whereafter plasma and buffy coat were removed. The erythrocytes were washed three times and resuspended to 5% in PBS, pH 7.4. The cells were then incubated with end-over-end rotation for 1 h at 37 °C in the presence of peptides (60 or 120 μM). 2% Triton X-100 (Sigma-Aldrich, St. Louis, USA) served as positive control. The samples were then centrifuged at 800 g for 10 min. The absorbance of hemoglobin release was measured at 540 nm and is expressed as % of Triton X-100 induced hemolysis. Results given represent mean values from triplicate measurements.

fibroblasts = test: Lactate dehydrogenase (LDH) assay; type: cell-based; conditions: 48 h, 1% FBS, LDH release relative to 1% Triton X-100, triplicate, Fig. 8a
tumor cells = system: tumor cells; design: method as in PMID 20876209, PMID 20406839; conditions: cited from earlier work
Source text: However, since it is taken up by tumor cells through passive diffusion, the overall response rate of doxorubicin is only about 30%[51][52].

Compound	Concentration up to which hemolysis is very low, at the background level of the negative control (erythrocytes)	Concentration up to which no significant toxicity is seen (LDH release) (fibroblasts)	overall response rate (tumor cells)
GRRPRPRPRP [GRR10]	at least 120 μM	at least 50 μM	–
COc1cccc2c1C(=O)c1c(O)c3c(c(O)c1C2=O)C[C@@](O)(C(=O)CO)C[C@@H]3O[C@H]1C[C@H](N)[C@H](O)[C@H](C)O1 [doxorubicin, Doxorubicin hydrochloride]	–	–	about 30%
GRRPRPRPRPWWWW [GRR10W4]	at least 120 μM	at least 50 μM	–
